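Assay format: 96-well plates, 48-hour exposure. GI50 marks 50% less growth.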 Calls of active or inactive are those of the source. Cut-off read from the data, not from the text of the source: active = GI50 up to about 1.1 µM and inactive = higher.
Columns and labels:
Experiment in all cases: NCI anticancer screen, dose series, 48 h
[1] = tested on: 786-0
[2] = tested on: A498
[3] = tested on: A549
[4] = tested on: ACHN
[5] = tested on: CAKI-1
[6] = tested on: CCRF-CEM
[7] = tested on: DU-145
[8] = tested on: EKVX
[9] = tested on: HCC 2998
[10] = tested on: HCT-116
[11] = tested on: HCT-15
[12] = tested on: HL-60
[13] = tested on: HOP-62
[14] = tested on: HOP-92
[15] = tested on: HT-29
[16] = tested on: Hs-578T
[17] = tested on: IGROV-1
[18] = tested on: K562
[19] = tested on: LOX IMVI
[20] = tested on: M14
[21] = tested on: MCF7
[22] = tested on: MDA-MB-231
[23] = tested on: MDA-MB-435
[24] = tested on: MDA-N
[25] = tested on: MOLT-4
[26] = tested on: Malme-3M
[27] = tested on: NCI-H23
[28] = tested on: NCI-H460
[29] = tested on: NCI-H522
[30] = tested on: NCI/ADR-RES
[31] = tested on: OVCAR-3
[32] = tested on: OVCAR-4
[33] = tested on: OVCAR-5
[34] = tested on: OVCAR-8
[35] = tested on: PC-3
[36] = tested on: RPMI-8226
[37] = tested on: RXF 393
[38] = tested on: SF-268
[39] = tested on: SF-295
[40] = tested on: SF-539
[41] = tested on: SK-MEL-28
[42] = tested on: SK-MEL-2
[43] = tested on: SK-MEL-5
[44] = tested on: SK-OV-3
[45] = tested on: SNB-19
[46] = tested on: SNB-75
[47] = tested on: SR
[48] = tested on: SW-620
[49] = tested on: T47D
[50] = tested on: TK-10
[51] = tested on: U-251
[52] = tested on: UACC-257
[53] = tested on: UO-31

O=C1c2cc3c(cc2CC12Cc1ccc4c(c1C2=O)CCC4)CCCC3 (stereo not drawn)
GI50 [1]: > 100 µM (inactive) | GI50 [2]: > 100 µM (inactive) | GI50 [3]: > 100 µM (inactive) | GI50 [4]: > 100 µM (inactive) | GI50 [5]: > 100 µM (inactive) | GI50 [6]: > 100 µM (inactive) | GI50 [7]: > 100 µM (inactive) | GI50 [8]: > 100 µM (inactive) | GI50 [9]: > 100 µM (inactive) | GI50 [10]: > 100 µM (inactive) | GI50 [11]: > 100 µM | GI50 [12]: > 100 µM (inactive) | GI50 [13]: > 100 µM (inactive) | GI50 [14]: > 100 µM (inactive) | GI50 [15]: > 100 µM (inactive) | GI50 [16]: > 100 µM (inactive) | GI50 [17]: > 100 µM (inactive) | GI50 [18]: > 100 µM (inactive) | GI50 [19]: > 100 µM (inactive) | GI50 [20]: > 100 µM (inactive) | GI50 [21]: > 100 µM (inactive) | GI50 [22]: > 100 µM (inactive) | GI50 [23]: 76.4 µM (inactive) | GI50 [24]: > 100 µM (inactive) | GI50 [25]: > 100 µM (inactive) | GI50 [26]: 60 µM (inactive) | GI50 [27]: > 100 µM (inactive) | GI50 [28]: > 100 µM (inactive) | GI50 [29]: > 100 µM (inactive) | GI50 [30]: > 100 µM (inactive) | GI50 [31]: > 100 µM (inactive) | GI50 [32]: > 100 µM (inactive) | GI50 [33]: > 100 µM (inactive) | GI50 [34]: > 100 µM (inactive) | GI50 [35]: > 100 µM (inactive) | GI50 [36]: > 100 µM (inactive) | GI50 [37]: > 100 µM (inactive) | GI50 [38]: > 100 µM (inactive) | GI50 [39]: > 100 µM (inactive) | GI50 [40]: > 100 µM (inactive) | GI50 [41]: > 100 µM (inactive) | GI50 [42]: > 100 µM (inactive) | GI50 [43]: > 100 µM (inactive) | GI50 [44]: > 100 µM (inactive) | GI50 [45]: > 100 µM (inactive) | GI50 [46]: 5.7 µM (inactive) | GI50 [47]: 60 µM (inactive) | GI50 [48]: > 100 µM (inactive) | GI50 [49]: > 100 µM (inactive) | GI50 [50]: > 100 µM (inactive) | GI50 [51]: > 100 µM (inactive) | GI50 [52]: > 100 µM (inactive) | GI50 [53]: > 100 µM (inactive)
